Results published in PubChem BioAssay AID652211 (Johns Hopkins Ion Channel Center, 2013).
Activity calls are given as the source filed them.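 How the source made its calls: active means lowers flux through the TASK3 potassium channel at some tested dose, with a dose response curve; inactive means no inhibition at any dose or no dose response.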

Target: Potassium channel subfamily K member 9 (Homo sapiens) (UniProt Q9NPC2)
Experiment: KCNK9 flux blockade, concentration-response – cell-based, FluxOR thallium flux, selectivity assay for TASK1 inhibitor project, SAR follow-up (AID 652211)
Details: KCNK9-expressing cells, FluxOR thallium flux fluorescence; for thallium flux ratio, lower = inhibition: at 30 µM (top of the series)

Potassium channel subfamily K member 9 (Homo sapiens), sequence (Q9NPC2 whole entry, looked up): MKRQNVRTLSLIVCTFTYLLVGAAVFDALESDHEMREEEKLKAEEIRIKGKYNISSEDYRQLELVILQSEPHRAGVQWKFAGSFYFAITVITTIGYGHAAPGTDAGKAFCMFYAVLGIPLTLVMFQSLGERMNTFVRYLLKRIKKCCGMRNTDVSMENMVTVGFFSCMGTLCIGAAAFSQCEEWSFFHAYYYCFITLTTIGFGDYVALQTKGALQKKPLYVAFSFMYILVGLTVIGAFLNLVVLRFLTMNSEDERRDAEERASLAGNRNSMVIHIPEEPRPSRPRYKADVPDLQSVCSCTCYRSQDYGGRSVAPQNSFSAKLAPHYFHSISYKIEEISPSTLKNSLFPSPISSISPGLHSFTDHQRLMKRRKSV

Row | Compound | thallium flux ratio, lower = inhibition | IC50 [nM]
1 | O=C(Nc1cccc(NC(=O)c2ccncc2)c1)c1ccccc1 | inactive | –
2 | CCOc1ccccc1NC(=O)c1cccc(C(=O)NC2CCCC2)c1 | inactive | –
3 | Cc1cccc(C(=O)Nc2cccc(NC(=O)c3ccc(N(C)C)cc3)c2)c1 | inactive | –
4 | Cc1cccc(S(=O)(=O)Nc2cccc(NC(=O)c3ccccc3)c2)c1 | inactive | –
5 | Cc1cccc(NC(=O)c2ccccc2NC(=O)c2ccccc2)c1 | inactive | –
6 | Cc1cccc(C(=O)Nc2cccc(NC(=O)c3ccc(C(F)(F)F)cc3)c2)c1 | inactive | –
7 | CCOc1ccccc1NC(=O)c1cccc(NC(=O)c2ccc(Cl)cc2)c1 | inactive | –
8 | CC(C)c1ccccc1C(=O)Nc1cccc(NC(=O)c2ccccc2OC(F)(F)F)c1 | – | 730
9 | COc1ccc(C(=O)Nc2cccc(NC(=O)c3cccc(C)c3)c2)cc1 | inactive | –
10 | Cc1cccc(C(=O)Nc2cccc(C(=O)Nc3ccccc3)c2)c1 | inactive | –
11 | O=C(Nc1cccc(NC(=O)c2ccoc2)c1)c1ccccc1 | inactive | –
12 | O=C(Nc1cccc(NC(=O)c2ccc(C(F)(F)F)cc2)c1)c1ccccc1 | inactive | –
13 | CCOc1ccccc1NC(=O)c1cccc(NC(=O)c2ccc(C(F)(F)F)cc2)c1 | inactive | –
14 | Cc1cccc(C(=O)Nc2cccc(NC(=O)c3ccc(Cl)cc3)c2)c1 | inactive | –
15 | CCOc1ccccc1NC(=O)c1cccc(NC(=O)C2CCCO2)c1 (centres undefined) | inactive | –
16 | O=C(Nc1cccc(NC(=O)c2cccs2)c1)c1ccccc1 | inactive | –
17 | O=C(Nc1cccc(NC(=O)c2ccc(F)cc2)c1)c1ccccc1 | inactive | –
18 | O=C(Nc1cccc(NC(=O)c2ccco2)c1)c1ccccc1 | inactive | –
19 | Cc1cccc(C(=O)Nc2cccc(NC(=O)c3cccc(F)c3)c2)c1 | – | 600
20 | O=C(Nc1cccc(NC(=O)c2cccc(Cl)c2)c1)c1ccccc1 | inactive | –
21 | O=C(Nc1cccc(NC(=O)c2ccc(Cl)cc2)c1)c1ccccc1 | inactive | –
22 | Cc1cccc(C(=O)Nc2cccc(NC(=O)c3ccc(C(C)(C)C)cc3)c2)c1 | inactive | –

Further lines, results first:

Row | thallium flux ratio, lower = inhibition | IC50 [nM] | Compound
23 | inactive | – | COc1ccc(C(=O)Nc2cccc(NC(=O)c3ccccc3)c2)cc1
24 | inactive | – | O=C(Nc1cccc(NC(=O)c2cccc(C(F)(F)F)c2)c1)c1ccccc1
25 | inactive | – | CCOc1ccccc1NC(=O)c1cccc(NC(=O)C2CCOC2)c1 (centres undefined)
26 | inactive | – | Cc1cccc(C(=O)Nc2cccc(NC(=O)c3ccncc3)c2)c1
27 | inactive | – | CCOc1ccc(NC(=O)c2cccc(NC(=O)C3CCCC3)c2)cc1
28 | inactive | – | CN(C)c1ccc(C(=O)Nc2cccc(NC(=O)c3ccccc3)c2)cc1
29 | inactive | – | O=C(Nc1cccc(NC(=O)c2ccsc2)c1)c1ccccc1
30 | inactive | – | O=C(Nc1cccc(NC(=O)c2cccc(F)c2)c1)c1ccccc1
31 | inactive | – | Cc1cccc(NC(=O)c2cccc(NC(=O)c3ccccc3)c2)c1
32 | inactive | – | Cc1ccc(C(=O)Nc2cccc(NC(=O)c3ccccc3)c2)cc1
33 | inactive | – | O=C(Nc1cccc(NC(=O)c2ccccc2)c1)c1ccccc1
34 | inactive | – | Cc1cccc(C(=O)Nc2ccccc2C(=O)Nc2ccccc2)c1
35 | inactive | – | Cc1cccc(C(=O)Nc2ccccc2NC(=O)c2ccccc2)c1
36 | inactive | – | O=C(Nc1cccc(NC(=O)c2cccnc2)c1)c1ccccc1
37 | inactive | – | CC(C)(C)c1ccc(C(=O)Nc2cccc(NC(=O)c3ccccc3)c2)cc1
38 | inactive | – | CCOc1ccccc1NC(=O)c1cccc(NC(=O)c2ccc(OC)cc2)c1
39 | inactive | – | COc1ccccc1C(=O)Nc1cc(NC(=O)c2ccccc2C(C)C)ccc1F
